Measurements: US9029409B2, “Isoxazolines as therapeutic agents” (AbbVie Inc., priority 2011, dated 2015)

Target: T1, recombinant human MMP13 catalytic domain (CD) (Homo sapiens, UniProt P45452)
T1 construct: catalytic domain (CD) construct encompassing residues 20-274 (SWISS-PROT P45452); made in house
Assay: MMP-13 catalytic domain FRET enzyme assay
Format: biochemical
Details: recombinant human MMP-13 catalytic domain
Experimental: A recombinant human MMP13 catalytic domain (CD) construct encompassing residues 20-274 (SWISS-PROT P45452) was generated by synthetic gene methods and bacterial expression. MMP-13 activity assays were performed using the recombinant human MMP-13 CD at a 0.4 nM concentration and the fluorogenic substrate (QXL-520)-K-P-L-A˜Nva-Dap(5-FAM)-A-R-NH2 (Anaspec cat #60554-01, San Jose, Calif.) at a 0.25 μM concentration in assay buffer containing […], pH 7.5, 10 mM CaCl2, 150 mM NaCl, 0.05% Brij 35. The assay is based on the cleavage of this substrate by MMP-13, resulting in decrease of FRET between the donor-acceptor pair and subsequent fluorescence enhancement. The assays were carried out in 384-well plates (Greiner cat #781076, Germany) for 60 min at RT. After the incubation period, the reaction was quenched by the addition of 5 μL of 500 mM EDTA (100 mM final concentration) (Rankem, Cat #E0120, India) mixed well and the rate of substrate hydrolysis was determined by monitoring change in fluorescence at excitation and emission wavelengths of 485 nm and 535 nm respectively. Fluorescence was measured on a Victor V5 plate reader (Perkin Elmer, Turku, Finland). The test compounds used for assessing the potency of inhibition of MMP-13 activity were dissolved in DMSO (final DMSO concentration in the assay was 5%). Selected compounds were also screened against full length MMP13 (R&D Systems (Cat. No. 511-MM-010), Minneapolis, Minn.) at 2 nM concentration using the same fluorogenic substrate mentioned above. The enzyme was activated using 1 m Mp-aminophenylmercuric acetate—APMA (Cat #A-9563, Sigma, Germany).
Data analysis: The percent inhibition of the enzyme activity in presence of test compounds were calculated using the equation, percent (%) Inhibition=100−[(Fi/Fc)*100] where Fc is the fluorescence corresponding to initial enzyme activity and Fi is the fluorescence corresponding to the enzyme activity in presence of inhibitor. The IC50 values were calculated by fitting the dose-response data to a sigmoidal curve fitting equation using Graph Pad prism software (Version 5, La Jolla, Calif.).
MMP13 Catalytic Domain (CD) Potency of the Described Examples Determined Using Time Resolved Fluorescence Resonance Energy Transfer (FRET) Enzyme Assays: […]

| SMILES | IC50 |
| --- | --- |
| COc1cc(CNC(=O)c2cc(C3=NOC(c4ccn(CC(=O)N(C)OC)c(=O)c4)C3)nc(C)n2)ccc1F (stereo not drawn) | 10 to 100 nM |
| COc1ccc(CNC(=O)c2cc(C3=NOC(c4ccc(OCCO)cc4)C3)nc(C)n2)cc1 (stereo not drawn) | 10 to 100 nM |
| COc1cc(CNC(=O)c2cc(C3=NO[C@@H](c4ccc(=O)n(C5CC5)c4)C3)nc(C)n2)ccc1F | 10 to 100 nM |
| Cc1nc(C(=O)NCc2ccc(F)c(Cl)c2)cc(C2=NO[C@H]([C@H]3CO[C@@H](CO)CO3)C2)n1 [drawing 924] | > 1000 nM |
| CNC(=O)Cn1nc(C2CC(c3cc(C(=O)NCc4ccc(F)c(OC)c4)nc(C)n3)=NO2)ccc1=O (stereo not drawn) | 10 to 100 nM |
| COc1cc(CNC(=O)c2cc(C3=NO[C@H]([C@H]4CC[C@H](NC(C)=O)CC4)C3)nc(C)n2)ccc1F [drawing 1032] | 10 to 100 nM |
| COc1cc(CNC(=O)c2cc(C3=NOC(c4ccc(CO)cc4)C3)nc(C)n2)ccc1F (stereo not drawn) | < 10 nM |
| COc1ccc(C2CC(c3cc(C(=O)NCc4ccc(F)c(OC)c4)nc(C)n3)=NO2)nn1 (stereo not drawn) | 10 to 100 nM |
| Cc1nc(C(=O)NCc2ccc(F)cc2)cc(C2=NOC([C@H]3CC[C@H](NC(=O)[C@H](C)O)CC3)C2)n1 (stereo partly drawn) | 10 to 100 nM |
| CNCC(C)N[C@H]1CC[C@H](C2CC(c3cc(C(=O)NCc4ccc(F)c(OC)c4)nc(C)n3)=NO2)CC1 (stereo partly drawn) | 10 to 100 nM |
| COc1cc(CNC(=O)c2cc(C3=NOC(c4ccc(C#N)cn4)C3)nc(C)n2)ccc1F (stereo not drawn) | < 10 nM |
| Cc1nc(C(=O)NCc2ccnc3ccccc23)cc(C2=NO[C@H]([C@H]3CO[C@H](CO)CO3)C2)n1 | 100 to 1000 nM |
| COc1cc(CNC(=O)c2cc(C3=NOC(c4cc(-c5nc(C)no5)nn4C)C3)nc(C)n2)ccc1F (stereo not drawn) | 10 to 100 nM |
| Cc1nc(C(=O)NCc2ccc(F)c(C)c2)cc(C2=NOC(C3CCN(C(=O)CO)CC3)C2)n1 (stereo not drawn) | 10 to 100 nM |
| COc1cc(CNC(=O)c2cc(C3=NOC(c4ccc(C(C)=O)nc4)C3)nc(C)n2)ccc1F (stereo not drawn) | < 10 nM |
| COc1cc(CNC(=O)c2cc(C3=NOC(c4ccc(=O)n(CC(=O)N(C)C)n4)C3)nc(C)n2)ccc1F (stereo not drawn) | 10 to 100 nM |
| COc1cc(CNC(=O)c2cc(C3=NOC(CN4CCC(CO)C4)C3)nc(C)n2)ccc1F (stereo not drawn) | > 1000 nM |
| COc1ccc(CNC(=O)c2cc(C3=NOC(C4CCN(C(C)=O)CC4)C3)nc(C)n2)cc1 (stereo not drawn) | 100 to 1000 nM |
| COc1cc(CNC(=O)c2cc(C3=NOC(C4CCN(C(=O)Nc5nccs5)CC4)C3)nc(C)n2)ccc1F (stereo not drawn) | 10 to 100 nM |

| SMILES | IC50 |
| --- | --- |
| COc1cc(CNC(=O)c2cc(C3=NO[C@H]([C@@H]4CO[C@@H](CO)CO4)C3)nc(C)n2)ccc1F | 10 to 100 nM |
| COc1ccc(C2CC(c3ccnc(C(=O)NCc4cccc(OC)c4)c3)=NO2)cc1 (stereo not drawn) | 10 to 100 nM |
| COc1cc(CNC(=O)c2cc(C3=NOC(C4CCN(C(=O)CS(C)(=O)=O)CC4)C3)nc(C)n2)ccc1F (stereo not drawn) | 10 to 100 nM |
| Cc1nc(C(=O)NCc2ccc(F)cc2)cc(C2=NO[C@@H]([C@@H]3CO[C@@H](CO)CO3)C2)n1 | > 1000 nM |
| CNC(=O)c1ccc(C2CC(c3cc(C(=O)NCc4ccc(F)c(OC)c4)nc(C)n3)=NO2)cc1 (stereo not drawn) | < 10 nM |
| Cc1nc(C(=O)NCc2ccc(F)cc2)cc(C2=NOC(C3CCN(S(C)(=O)=O)CC3)C2)n1 (stereo not drawn) | < 10 nM |
| COc1cc(CNC(=O)c2cc(C3=NOC(c4ccc(=O)n(C)c4)C3)nc(C)n2)ccc1F (stereo not drawn) | 10 to 100 nM |
| COc1cc(CNC(=O)c2cc(C3CC(c4ccc(OCCO)cc4)=NO3)nc(C)n2)ccc1F (stereo not drawn) | 10 to 100 nM |
| COc1cc(CNC(=O)c2cc(C3=NO[C@H]([C@H]4CO[C@H](C(N)=O)CO4)C3)nc(C)n2)ccc1F | < 10 nM |
| COc1ccc(CNC(=O)c2cc(C3=NOC(c4ccc(N5CCOCC5)cc4)C3)nc(C)n2)cc1 (stereo not drawn) | 10 to 100 nM |
| COc1cc(CNC(=O)c2cc(C3=NOC(c4ccc(=O)n(CC(=O)N(C)C)c4)C3)nc(C)n2)ccc1F (stereo not drawn) | 10 to 100 nM |
| CC(=O)N[C@H]1CC[C@H](C2CC(c3cc(C(=O)NCc4ccnc5ccccc45)nc(C)n3)=NO2)CC1 (stereo partly drawn) | 100 to 1000 nM |
| CC(=O)N1CCC(C2CC(c3cc(C(=O)NCc4ccc(F)c(Cl)c4)nc(C)n3)=NO2)CC1 (stereo not drawn) | 10 to 100 nM |
| COc1cc(CNC(=O)c2cc(C3=NO[C@H](c4ccc(CO)cc4)C3)nc(C)n2)ccc1F | > 1000 nM |
| COc1cc(CNC(=O)c2cc(C3=NOC(c4nn[nH]n4)C3)nc(C)n2)ccc1F (stereo not drawn) | > 1000 nM |
| Cc1nc(C(=O)NCc2ccc3oc(C)nc3c2)cc(C2=NO[C@H]([C@H]3CO[C@H](CO)CO3)C2)n1 | 10 to 100 nM |
| COc1cc(CNC(=O)c2cc(C3=NOC(c4ccc(-c5nc(C)no5)cn4)C3)nc(C)n2)ccc1F (stereo not drawn) | < 10 nM |
| COc1cc(CNC(=O)c2cc(C3=NO[C@H]([C@H]4CO[C@H](CNC(=O)CO)CO4)C3)nc(C)n2)ccc1F | < 10 nM |
| Cc1nc(C(=O)NCc2ccc(F)cc2)cc(C2=NO[C@H]([C@H]3CO[C@@H](CO)CO3)C2)n1 | 10 to 100 nM |

The next lines start with the values.

| IC50 | SMILES |
| --- | --- |
| < 10 nM | COc1cc(CNC(=O)c2cc(C3=NO[C@H]([C@H]4CC[C@H](NC(C)=O)CC4)C3)nc(C)n2)ccc1F [drawing 1031] |
| > 1000 nM | COC[C@@H]1CO[C@@H]([C@H]2CC(c3cc(C(=O)NCc4ccc(F)c(OC)c4)nc(C)n3)=NO2)CO1 |
| < 10 nM | COc1cc(CNC(=O)c2cc(C3=NOC([C@H]4CC[C@H](CNC(=O)CO)CC4)C3)nc(C)n2)ccc1F (stereo partly drawn) |
| 100 to 1000 nM | COc1cc(CNC(=O)c2cc(C3=NO[C@@H](c4ccc(=O)n(C)c4)C3)nc(C)n2)ccc1F |
| 10 to 100 nM | Cc1nc(C(=O)NCc2ccc(F)c(F)c2)cc(C2=NOC(C3CCN(C(=O)CO)CC3)C2)n1 (stereo not drawn) |
| 10 to 100 nM | COc1cc(CNC(=O)c2cc(C3=NOC(c4ccc(C(N)=O)nn4)C3)nc(C)n2)ccc1F (stereo not drawn) |
| 10 to 100 nM | Cc1nc(C(=O)NCc2ccc(F)c(Cl)c2)cc(C2=NO[C@@H]([C@H]3CC[C@H](NC(=O)[C@H](C)O)CC3)C2)n1 |
| < 10 nM | COc1cc(CNC(=O)c2cc(C3=NO[C@H](c4ccc(=O)n(C)c4)C3)nc(C)n2)ccc1F |
| 10 to 100 nM | CNC(=O)c1cccc(C2CC(c3cc(C(=O)NCc4ccc(F)c(OC)c4)nc(C)n3)=NO2)c1 (stereo not drawn) |
| 10 to 100 nM | COc1cc(CNC(=O)c2cc(C3=NOC([C@H]4CC[C@H](NC(=O)C(C)(C)O)CC4)C3)nc(C)n2)ccc1F (stereo partly drawn) |
| < 10 nM | Cc1nc(C(=O)NCc2ccc(F)c(Cl)c2)cc(C2=NO[C@H]([C@H]3CO[C@H](CS(C)(=O)=O)CO3)C2)n1 |
| 100 to 1000 nM | COc1cc(CNC(=O)c2cc(C3=NO[C@@H](c4ccn(C)c(=O)c4)C3)nc(C)n2)ccc1F |
| < 10 nM | COc1cc(CNC(=O)c2cc(C3=NO[C@H]([C@H]4CO[C@H](CNC(=O)[C@H](C)O)CO4)C3)nc(C)n2)ccc1F |
| < 10 nM | Cc1nc(C(=O)NCc2ccc(F)c(C)c2)cc(C2=NO[C@H]([C@H]3CC[C@H](NC(=O)[C@H](C)O)CC3)C2)n1 |
| < 10 nM | COc1cc(CNC(=O)c2cc(C3=NOC([C@H]4CC[C@H](NS(N)(=O)=O)CC4)C3)nc(C)n2)ccc1F (stereo partly drawn) |
| < 10 nM | Cc1nc(C(=O)NCc2ccc3c(c2)NC(=O)CO3)cc(C2=NO[C@H]([C@H]3CO[C@H](CO)CO3)C2)n1 |
| > 1000 nM | COc1ccc(CNC(=O)c2cc(C3=NOC(c4ccc(CN(C)C)cc4)C3)ccn2)cc1 (stereo not drawn) |
| < 10 nM | COc1cc(CNC(=O)c2cc(C3=NOC(C4CCN(S(=O)(=O)c5cn(C)cn5)CC4)C3)nc(C)n2)ccc1F (stereo not drawn) |
| 10 to 100 nM | COc1cc(CNC(=O)c2cc(C3=NOC(C4CCN(C(=O)C5CC5)CC4)C3)nc(C)n2)ccc1F (stereo not drawn) [drawing 875] |
